Test results published in publication PMC11226702, “Time-resolved crystallography of boric acid binding to the active site serine of the β-lactamase CTX-M-14 and subsequent 1,2-diol esterification” (Communications Chemistry, 2024).

Columns and labels:
β-lactamase CTX-M-14 [1] = target: T1, β-lactamase CTX-M-14 (Klebsiella pneumoniae, UniProt A0A0H3H219); test: time-resolved serial crystallography (bound to Ser70, occupancy up to […]); IC50 by photometric cefotaxime hydrolysis assay; type: biochemical
T1 construct: gene KPHS_p301310
T1 sequence (A0A0H3H219 entry or part of it): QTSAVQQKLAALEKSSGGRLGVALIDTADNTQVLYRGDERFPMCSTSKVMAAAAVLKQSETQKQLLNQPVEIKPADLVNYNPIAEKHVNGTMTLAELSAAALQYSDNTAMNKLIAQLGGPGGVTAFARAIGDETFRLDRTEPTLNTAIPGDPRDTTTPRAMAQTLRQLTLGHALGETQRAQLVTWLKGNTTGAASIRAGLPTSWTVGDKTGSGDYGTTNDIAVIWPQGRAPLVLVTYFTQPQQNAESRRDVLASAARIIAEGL

β-lactamase CTX-M-14 [2] = target: T1, β-lactamase CTX-M-14; test: time-resolved serial crystallography, formed in situ from Ser70-bound boric acid and glycerol (occupancy […]); IC50 is for boric acid combined with glycerol; type: biochemical

IC50 (β-lactamase CTX-M-14 [2]) [mM]	SMILES	IC50 (β-lactamase CTX-M-14 [1]) [mM]
	OB(O)O [BAB, boric acid]	2.9 ± 0.4
3.1 ± 0.4	OCC1COB(O)O1 (racemic) [GBE, glycerol boric acid diester]	
